Data as given in ChEMBL document CHEMBL6074644, “Design, synthesis, and activity evaluation of water-soluble propofol derivatives as anesthetic drugs” (Bioorg Med Chem Lett, 2024).

Tests used:
[1] = Toxicity in iv dosed Kunming mouse assessed as lethal dose; type: organism-based; conditions: in vivo
Mus musculus [2] = assay: Anesthetic activity in Kunming mouse assessed as disappearance of flip reflex by measuring onset time administered as single bolus dose; type: functional
Mus musculus [3] = assay: Anesthetic activity in Kunming mouse assessed as reappearance of flip reflex by measuring duration time administered as single bolus dose; type: functional; also: test concentration or dose not given here
Mus musculus [4] = assay: Anesthetic activity in iv dosed Kunming mouse by up and down method; type: functional
[5] = Therapeutic index, ratio of LD50 for toxicity in iv dosed Kunming mouse assessed as lethal dose to ED50 for anesthetic activity in iv dosed Kunming mouse; type: organism-based; conditions: in vivo, read-out: Ratio LD50/ED50

Compound CCN1CCN(CCC(=O)Oc2c(C(C)C)cccc2C(C)C)CC1.Cl has an LD50 [1] of 38000 µmol/kg, a Time (Mus musculus [2]) of 2 s and a Time (Mus musculus [3]) of 167 s. It also gave an ED50 (Mus musculus [4]) of 12 mg/kg and a selectivity ratio [5] of 3.2.

CCN1CCN(CC(=O)Oc2c(C(C)C)cccc2C(C)C)CC1.Cl showed an LD50 [1] of 11500 µmol/kg, a Time (Mus musculus [2]) of 13 s and a Time (Mus musculus [3]) of 139 s. The ED50 (Mus musculus [4]) was 8 mg/kg and the selectivity ratio [5] was 1.4.

Work on CCN(CC)CCC(=O)Oc1c(C(C)C)cccc1C(C)C.Cl yielded an LD50 [1] of 58800 µmol/kg, a Time (Mus musculus [2]) of 3 s and a Time (Mus musculus [3]) of 162 s. The ED50 (Mus musculus [4]) was 17 mg/kg and the selectivity ratio [5] was 3.5.

CC(C)c1cccc(C(C)C)c1OC(=O)CCN1CCOCC1.Cl gave an LD50 [1] of 43800 µmol/kg, a Time (Mus musculus [2]) of 16 s and a Time (Mus musculus [3]) of 145 s. The ED50 (Mus musculus [4]) was 12 mg/kg and the selectivity ratio [5] was 3.6.

CC(C)c1cccc(C(C)C)c1OC(=O)CCN1CCCCC1.Cl gave an LD50 [1] of 36900 µmol/kg, a Time (Mus musculus [2]) of 21 s and a Time (Mus musculus [3]) of 152 s. It also gave an ED50 (Mus musculus [4]) of 8.2 mg/kg and a selectivity ratio [5] of 4.5.

CCCN(CCC)CC(=O)OCCCC(=O)Oc1c(C(C)C)cccc1C(C)C.Cl gave an LD50 [1] of 45900 µmol/kg, a Time (Mus musculus [2]) of 37 s and a Time (Mus musculus [3]) of 402 s. For the same compound, the ED50 (Mus musculus [4]) was 9 mg/kg and the selectivity ratio [5] was 5.1.

With CCN(CC)CC(=O)OCCCC(=O)Oc1c(C(C)C)cccc1C(C)C.Cl the LD50 [1] was 52800 µmol/kg, the Time (Mus musculus [2]) was 20 s and the Time (Mus musculus [3]) was 371 s. It also gave an ED50 (Mus musculus [4]) of 11 mg/kg and a selectivity ratio [5] of 4.8.

Compound CCN1CCN(CCCC(=O)OCCCC(=O)Oc2c(C(C)C)cccc2C(C)C)CC1.Cl has an LD50 [1] of 31900 µmol/kg, a Time (Mus musculus [2]) of 11 s and a Time (Mus musculus [3]) of 456 s. For the same compound, the ED50 (Mus musculus [4]) was 6.5 mg/kg and the selectivity ratio [5] was 4.9.

With CC(C)c1cccc(C(C)C)c1OC(=O)CCCOC(=O)CN1CCCCC1.Cl the LD50 [1] was 39800 µmol/kg, the Time (Mus musculus [2]) was 27 s and the Time (Mus musculus [3]) was 440 s. For the same compound, the ED50 (Mus musculus [4]) was 8.3 mg/kg and the selectivity ratio [5] was 4.8.

Work on CC1CCN(CCC(=O)Oc2c(C(C)C)cccc2C(C)C)CC1.Cl yielded an LD50 [1] of 38900 µmol/kg, a Time (Mus musculus [2]) of 41 s and a Time (Mus musculus [3]) of 179 s. For the same compound, the ED50 (Mus musculus [4]) was 9.2 mg/kg and the selectivity ratio [5] was 4.2.

Work on CC(C)c1cccc(C(C)C)c1OC(=O)CN1CCCCC1C.Cl (stereo not given) yielded an LD50 [1] of 15800 µmol/kg, a Time (Mus musculus [2]) of 27 s and a Time (Mus musculus [3]) of 150 s. For the same compound, the ED50 (Mus musculus [4]) was 9.2 mg/kg and the selectivity ratio [5] was 1.7.

In the case of CC1CCN(CC(=O)OCCCC(=O)Oc2c(C(C)C)cccc2C(C)C)CC1.Cl, the LD50 [1] is reported as 17600 µmol/kg, the Time (Mus musculus [2]) is reported as 8 s and the Time (Mus musculus [3]) is reported as 362 s. It also gave an ED50 (Mus musculus [4]) of 3.6 mg/kg and a selectivity ratio [5] of 4.8.

Work on CC(C)c1cccc(C(C)C)c1OC(=O)CCCOC(=O)CCCN1CCOCC1.Cl yielded an LD50 [1] of 17500 µmol/kg, a Time (Mus musculus [2]) of 7 s and a Time (Mus musculus [3]) of 375 s. It also gave an ED50 (Mus musculus [4]) of 3.6 mg/kg and a selectivity ratio [5] of 4.9.

CCN1CCN(CC(=O)OCCCC(=O)Oc2c(C(C)C)cccc2C(C)C)CC1.Cl gave an LD50 [1] of 50500 µmol/kg, a Time (Mus musculus [2]) of 16 s and a Time (Mus musculus [3]) of 193 s. It also gave an ED50 (Mus musculus [4]) of 10.1 mg/kg and a selectivity ratio [5] of 5.

CC(C)c1cccc(C(C)C)c1OC(=O)CCN1CCN(C)CC1.Cl gave an LD50 [1] of 33400 µmol/kg, a Time (Mus musculus [2]) of 14 s and a Time (Mus musculus [3]) of 156 s. For the same compound, the ED50 (Mus musculus [4]) was 9 mg/kg and the selectivity ratio [5] was 3.7.

Compound CC1CCCN(CCCC(=O)OCCCC(=O)Oc2c(C(C)C)cccc2C(C)C)C1.Cl (stereo not given) has an LD50 [1] of 10700 µmol/kg, a Time (Mus musculus [2]) of 11 s and a Time (Mus musculus [3]) of 571 s. It also gave an ED50 (Mus musculus [4]) of 1.9 mg/kg and a selectivity ratio [5] of 5.6.

CC1CCCN(CC(=O)OCCCC(=O)Oc2c(C(C)C)cccc2C(C)C)C1.Cl (stereo not given) showed an LD50 [1] of 14700 µmol/kg, a Time (Mus musculus [2]) of 16 s and a Time (Mus musculus [3]) of 547 s. For the same compound, the ED50 (Mus musculus [4]) was 2.9 mg/kg and the selectivity ratio [5] was 5.1.

With CC(C)c1cccc(C(C)C)c1OC(=O)CCCOC(=O)CCCN1CCCC1.Cl the LD50 [1] was 46400 µmol/kg, the Time (Mus musculus [2]) was 1 s and the Time (Mus musculus [3]) was 534 s. It also gave an ED50 (Mus musculus [4]) of 8.9 mg/kg and a selectivity ratio [5] of 5.2.

With CC1CCN(CC(=O)Oc2c(C(C)C)cccc2C(C)C)CC1.Cl the LD50 [1] was 18000 µmol/kg, the Time (Mus musculus [2]) was 11 s and the Time (Mus musculus [3]) was 137 s. It also gave an ED50 (Mus musculus [4]) of 11.1 mg/kg and a selectivity ratio [5] of 1.6.

In the case of CC1CCCN(CC(=O)Oc2c(C(C)C)cccc2C(C)C)C1.Cl (stereo not given), the LD50 [1] is reported as 3900 µmol/kg, the Time (Mus musculus [2]) is reported as 27 s and the Time (Mus musculus [3]) is reported as 172 s. It also gave an ED50 (Mus musculus [4]) of 1.7 mg/kg and a selectivity ratio [5] of 2.3.

Work on CC1CCN(CCCC(=O)OCCCC(=O)Oc2c(C(C)C)cccc2C(C)C)CC1.Cl yielded an LD50 [1] of 13100 µmol/kg, a Time (Mus musculus [2]) of 3 s and a Time (Mus musculus [3]) of 337 s. For the same compound, the ED50 (Mus musculus [4]) was 2.5 mg/kg and the selectivity ratio [5] was 5.2.

Compound CC(C)c1cccc(C(C)C)c1OC(=O)CCCOC(=O)CN1CCCCC1C.Cl (stereo not given) has an LD50 [1] of 62800 µmol/kg, a Time (Mus musculus [2]) of 9 s and a Time (Mus musculus [3]) of 317 s. For the same compound, the ED50 (Mus musculus [4]) was 13 mg/kg and the selectivity ratio [5] was 4.8.

With CC(C)c1cccc(C(C)C)c1OC(=O)CCCOC(=O)CN1CCCC1.Cl the LD50 [1] was 56500 µmol/kg, the Time (Mus musculus [2]) was 18 s and the Time (Mus musculus [3]) was 216 s. The ED50 (Mus musculus [4]) was 11.3 mg/kg and the selectivity ratio [5] was 5.

CC(C)c1cccc(C(C)C)c1OC(=O)CCN1CCCC1.Cl gave an LD50 [1] of 3900 µmol/kg, a Time (Mus musculus [2]) of 5 s and a Time (Mus musculus [3]) of 180 s. The ED50 (Mus musculus [4]) was 15.1 mg/kg and the selectivity ratio [5] was 2.6.

With CC(C)c1cccc(C(C)C)c1OC(=O)CCCOC(=O)CCCN1CCCCC1.Cl the LD50 [1] was 12300 µmol/kg, the Time (Mus musculus [2]) was 8 s and the Time (Mus musculus [3]) was 413 s. It also gave an ED50 (Mus musculus [4]) of 2.4 mg/kg and a selectivity ratio [5] of 5.1.

In the case of CCN(CC)CCCC(=O)OCCCC(=O)Oc1c(C(C)C)cccc1C(C)C.Cl, the LD50 [1] is reported as 36300 µmol/kg, the Time (Mus musculus [2]) is reported as 24 s and the Time (Mus musculus [3]) is reported as 486 s. For the same compound, the ED50 (Mus musculus [4]) was 7.1 mg/kg and the selectivity ratio [5] was 5.1.

In the case of CC(C)c1cccc(C(C)C)c1OC(=O)CCCOC(=O)CN1CCOCC1.Cl, the LD50 [1] is reported as 39600 µmol/kg, the Time (Mus musculus [2]) is reported as 19 s and the Time (Mus musculus [3]) is reported as 434 s. It also gave an ED50 (Mus musculus [4]) of 8.2 mg/kg and a selectivity ratio [5] of 4.8.

Compound CC(C)c1cccc(C(C)C)c1OC(=O)CCCOC(=O)CCCN1CCCCC1C.Cl (stereo not given) has an LD50 [1] of 32100 µmol/kg, a Time (Mus musculus [2]) of 9 s and a Time (Mus musculus [3]) of 412 s. It also gave an ED50 (Mus musculus [4]) of 6.2 mg/kg and a selectivity ratio [5] of 5.2.

Work on CCCN(CCC)CCCC(=O)OCCCC(=O)Oc1c(C(C)C)cccc1C(C)C.Cl yielded an LD50 [1] of 48100 µmol/kg, a Time (Mus musculus [2]) of 21 s and a Time (Mus musculus [3]) of 536 s. For the same compound, the ED50 (Mus musculus [4]) was 9.2 mg/kg and the selectivity ratio [5] was 5.2.

For CCCN(CCC)CCC(=O)Oc1c(C(C)C)cccc1C(C)C.Cl, the LD50 [1] was 57600 µmol/kg, the Time (Mus musculus [2]) was 5 s and the Time (Mus musculus [3]) was 168 s. The ED50 (Mus musculus [4]) was 15.2 mg/kg and the selectivity ratio [5] was 3.8.

With CC(C)c1cccc(C(C)C)c1OC(=O)CCN1CCCCC1C.Cl (stereo not given) the LD50 [1] was 57700 µmol/kg, the Time (Mus musculus [2]) was 2 s and the Time (Mus musculus [3]) was 154 s. For the same compound, the ED50 (Mus musculus [4]) was 14 mg/kg and the selectivity ratio [5] was 4.1.

With CC1CCCN(CCC(=O)Oc2c(C(C)C)cccc2C(C)C)C1.Cl (stereo not given) the LD50 [1] was 28700 µmol/kg, the Time (Mus musculus [2]) was 18 s and the Time (Mus musculus [3]) was 144 s. For the same compound, the ED50 (Mus musculus [4]) was 7.1 mg/kg and the selectivity ratio [5] was 4.1.

CC(C)c1cccc(C(C)C)c1O [PROPOFOL] gave an LD50 [1] of 1600 µmol/kg, a Time (Mus musculus [2]) of 15 s and a Time (Mus musculus [3]) of 57 s. For the same compound, the ED50 (Mus musculus [4]) was 0.6 mg/kg and the selectivity ratio [5] was 2.7.
